pIC50: −log10 of the molar value.
molecular target: T1, EBP (Homo sapiens, UniProt Q15125); assay: EBP Functional Assay (EBP immunoaffinity LC-MS assay); format: biochemical; details: EBP enzyme from HEK293T cells; 30 min with inhibitor, then zymosterol-d5, 37° C., 4 h; percent conversion to dehydrolathosterol-d5 by LC-APCI MRM MS
T1 construct: HEK293T cells were utilized as the source of EBP enzyme; endogenous in cells; host or cells: HEK293T
Procedure: The EBP immunoaffinity (IA) LC-MS assay measures the potency of small molecule inhibitors of EBP by quantifying their concentration-dependent changes in the enzyme's substrate and product using liquid chromatography atmospheric pressure chemical ionization multiple reaction monitoring mass spectrometry (LC-APCI MRM MS). HEK293T cells were utilized as the source of EBP enzyme. The enzyme was incubated with the small molecule inhibitors at variable concentrations for 30 min. Deuterated form of EBP substrate, zymosterol-d5 (Avanti Polar Lipids, Cat #700068P-1 mg), was then added and the plate was incubated at 37° C. for 4 h. Finally, the sterol isomers were extracted and injected to LC-APCI MRM MS. MRM transition used for the quantification for both zymosterol and […] (substrate and product of EBP enzymatic reaction, respectively) is 372.3-203.2, CE 30 and DP 80 in positive ion mode. Percent conversion of the zymosterol-d5 to dehydrolathosterol-d5 was used to derive IC50 curves. Tasin-1 (1′-[(4-Methoxyphenyl)sulfonyl]-4-methyl-1,4′-bipiperidine, CAS 792927-06-1) was used as the reference small molecule inhibitor.
Percent conversion versus the compound concentration data were fit to the following 4-parameter logistic model to generate IC50 curves: […]

T1 sequence (Q15125 whole entry): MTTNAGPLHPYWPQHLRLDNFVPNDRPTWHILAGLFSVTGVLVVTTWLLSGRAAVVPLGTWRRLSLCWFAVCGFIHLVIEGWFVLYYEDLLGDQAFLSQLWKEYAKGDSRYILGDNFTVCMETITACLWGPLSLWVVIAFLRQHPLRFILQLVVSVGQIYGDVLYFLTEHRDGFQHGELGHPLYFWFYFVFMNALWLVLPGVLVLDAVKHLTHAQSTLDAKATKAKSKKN

pIC50 | SMILES
6.60 to 7.00 | Cn1nc(C(F)(F)F)cc1S(=O)(=O)N1CC2(CN(C3CCOCC3)C2)C1 [Example 46, 2-((1-Methyl-3-(trifluoromethyl)-1H-pyrazol-5-yl)sulfonyl)-6-(tetrahydro-2H-pyran-4-yl)-2,6-diazaspiro[3.3]heptane]
6.60 to 7.00 | COc1ccc(S(=O)(=O)N2CC3(CN(C4CCOCC4)C3)C2)c(C)n1 [Example 47]
6.60 to 7.00 | Cc1cc(C(F)(F)F)ncc1S(=O)(=O)N1CC2(CN(C3CCOCC3)C2)C1 [Example 48]
6.60 to 7.00 | Cc1nn(C)c(S(=O)(=O)N2CC3(CN(C4CCOCC4)C3)C2)c1C(F)F [Example 49]
> 7.00 | Cc1cc(OC(F)(F)F)ccc1S(=O)(=O)N1CC2(CN(C3CCOCC3)C2)C1 [Example 50]
> 7.00 | Cc1nc(C(F)(F)F)ccc1S(=O)(=O)N1CC2(CN(C3CCOCC3)C2)C1 [Example 51, 2-((2-Methyl-6-(trifluoromethyl)pyridin-3-yl)sulfonyl)-6-(tetrahydro-2H-pyran-4-yl)-2,6-diazaspiro[3.3]heptane]
> 7.00 | Cc1ccc(S(=O)(=O)N2CC3(CCN(C4CCOCC4)C3)C2)c(C)c1 [Example 52, 2-((2,4-Dimethylphenyl)sulfonyl)-6-(tetrahydro-2H-pyran-4-yl)-2,6-diazaspiro[3.4]octane]
> 7.00 | Cc1cc(C)c(S(=O)(=O)N2CC3(CCN(C4CCOCC4)C3)C2)cn1 [Example 53]
6.60 to 7.00 | O=S(=O)(c1ccc(OC(F)F)cc1)N1CC2(CCN(C3CCOCC3)C2)C1 [Example 54]
> 7.00 | Cn1nc(C(F)(F)F)cc1S(=O)(=O)N1CC2(CCN(C3CCOCC3)C2)C1 [Example 55]
> 7.00 | Cc1nc(C(F)(F)F)ccc1S(=O)(=O)N1CC2(CCN(C3CCOCC3)C2)C1 [Example 56]
6.60 to 7.00 | Cc1cc(C(F)(F)F)ncc1S(=O)(=O)N1CC2(CCN(C3CCOCC3)C2)C1 [Example 57]
> 7.00 | Cc1cc(OC(F)(F)F)ccc1S(=O)(=O)N1CC2(CCN(C3CCOCC3)C2)C1 [Example 58]
6.60 to 7.00 | Cn1nc(C2CC2)cc1S(=O)(=O)N1CC2(CCN(C3CCOCC3)C2)C1 [Example 59]
> 7.00 | Cn1nc(C(F)(F)F)cc1S(=O)(=O)N1CCC2(CN(C3CCOCC3)C2)C1 [Example 60, 6-((1-methyl-3-(Trifluoromethyl)-1H-pyrazol-5-yl)sulfonyl)-2-(tetrahydro-2H-pyran-4-yl)-2,6-diazaspiro[3.4]octane]
6.60 to 7.00 | O=S(=O)(c1ccc(OC(F)F)cc1)N1[C@@H]2CC[C@H]1CC1(C2)CN(C2CCOCC2)C1 [Example 61, (1′R,5′S)-8′-((4-(Difluoromethoxy)phenyl)sulfonyl)-1-(tetrahydro-2H-pyran-4-yl)-8′-azaspiro[azetidine-3,3′-bicyclo[3.2.1]octane]]

pIC50 | SMILES
> 7.00 | Cc1ccc(S(=O)(=O)N2CC3(C[C@H]4CC[C@@H](C3)N4CC(C)(C)O)C2)c(C)c1 [Example 62, 1-((1′R,5′S)-1-((2,4-dimethylphenyl)sulfonyl)-8′-azaspiro[azetidine-3,3′-bicyclo[3.2.1]octan]-8′-yl)-2-methylpropan-2-ol]
6.60 to 7.00 | COC(C)(C)CN1CC2(C[C@H]3CC[C@@H](C2)N3S(=O)(=O)c2ccc(OC(F)F)cc2)C1 [Example 63, (1′R,5′S)-8′-((4-(Difluoromethoxy)phenyl)sulfonyl)-1-(2-methoxy-2-methylpropyl)-8′-azaspiro[azetidine-3,3′-bicyclo[3.2.1]octane]]
5.40 to 6.60 | COC(C)(C)CN1[C@@H]2CC[C@H]1CC1(C2)CN(S(=O)(=O)c2ccc(OC(F)F)cc2)C1 [Example 64, (1′R,5′S)-1-((4-(Difluoromethoxy)phenyl)sulfonyl)-8′-(2-methoxy-2-methylpropyl)-8′-azaspiro[azetidine-3,3′-bicyclo[3.2.1]octane]]
5.40 to 6.60 | O=S(=O)(c1cc(C(F)(F)F)nn1CC1CC1)N1CC2(CN(C3CCOCC3)C2)C1 [Example 65, 2-((1-(cyclopropylmethyl)-3-(trifluoromethyl)-1H-pyrazol-5-yl)sulfonyl)-6-(tetrahydro-2H-pyran-4-yl)-2,6-diazaspiro[3.3]heptane]
5.40 to 6.60 | O=S(=O)(c1cc(C(F)(F)F)nn1CC1CC1)N1CC2(CN(CC3CCOCC3)C2)C1 [Example 66, 2-((1-(cyclopropylmethyl)-3-(trifluoromethyl)-1H-pyrazol-5-yl)sulfonyl)-6-((tetrahydro-2H-pyran-4-yl)methyl)-2,6-diazaspiro[3.3]heptane]
5.40 to 6.60 | Cc1nc(Br)ccc1S(=O)(=O)N1CC2(CN(C3CCOCC3)C2)C1 [Example 67, 2-((6-bromo-2-methylpyridin-3-yl)sulfonyl)-6-(tetrahydro-2H-pyran-4-yl)-2,6-diazaspiro[3.3]heptane]
> 7.00 | Cc1nc(C(F)(F)F)ccc1S(=O)(=O)N1CC2(C1)CN([C@H]1C[C@]3(CCO3)C1)C2 [Example 70, 2-((2-methyl-6-(trifluoromethyl)pyridin-3-yl)sulfonyl)-6-((4s,6s)-1-oxaspiro[3.3]heptan-6-yl)-2,6-diazaspiro[3.3]heptane]
6.60 to 7.00 | Cc1nc(C(F)(F)F)ccc1S(=O)(=O)N1CC2(C1)CN([C@H]1C[C@@]3(CCO3)C1)C2 [Example 71, 2-((2-methyl-6-(trifluoromethyl)pyridin-3-yl)sulfonyl)-6-((4r,6r)-1-oxaspiro[3.3]heptan-6-yl)-2,6-diazaspiro[3.3]heptane]
6.60 to 7.00 | Cn1nc(C(F)(F)F)cc1S(=O)(=O)N1CC2(CN(CC3(C)CCOCC3)C2)C1 [Example 72, 2-((1-methyl-3-(trifluoromethyl)-1H-pyrazol-5-yl)sulfonyl)-6-((4-methyltetrahydro-2H-pyran-4-yl)methyl)-2,6-diazaspiro[3.3]heptane]
6.60 to 7.00 | Cc1nc(C(F)(F)F)ccc1S(=O)(=O)N1CC2(CN(CC34COC(C)(C3)C4)C2)C1 [Example 73, 2-((1-methyl-2-oxabicyclo[2.1.1]hexan-4-yl)methyl)-6-((2-methyl-6-(trifluoromethyl)pyridin-3-yl)sulfonyl)-2,6-diazaspiro[3.3]heptane]
> 7.00 | Cc1nc(C(F)(F)F)ccc1S(=O)(=O)N1CC2(CN(CC34CCOC(C)(C3)C4)C2)C1 [Example 74, 2-((1-methyl-2-oxabicyclo[3.1.1]heptan-5-yl)methyl)-6-((2-methyl-6-(trifluoromethyl)pyridin-3-yl)sulfonyl)-2,6-diazaspiro[3.3]heptane]
> 7.00 | Cn1nc(C(F)(F)F)cc1S(=O)(=O)N1CC2(CN(C3(C)CCOCC3)C2)C1 [Example 76, 2-((1-methyl-3-(trifluoromethyl)-1H-pyrazol-5-yl)sulfonyl)-6-(4-methyltetrahydro-2H-pyran-4-yl)-2,6-diazaspiro[3.3]heptane]
> 7.00 | Cc1nc(C(F)(F)F)ccc1S(=O)(=O)N1CC2(CN(C3(C)CCOCC3)C2)C1 [Example 77, 2-((2-methyl-6-(trifluoromethyl)pyridin-3-yl)sulfonyl)-6-(4-methyltetrahydro-2H-pyran-4-yl)-2,6-diazaspiro[3.3]heptane]
6.60 to 7.00 | Cc1nc(C(C)(F)F)ccc1S(=O)(=O)N1CC2(CN(C3CC4(COC4)C3)C2)C1 [Example 78, 2-((6-(1,1-difluoroethyl)-2-methylpyridin-3-yl)sulfonyl)-6-(2-oxaspiro[3.3]heptan-6-yl)-2,6-diazaspiro[3.3]heptane]
> 7.00 | Cc1nc(C(C)(F)F)ccc1S(=O)(=O)N1CC2(CN(C3CCOCC3)C2)C1 [Example 79]

Reference: US20250171463A1 (BIOGEN MA INC., priority 2022, published 2025)
